Values of other authors as cited in PMC13515262 (Molecules, 2026).

Molecular target: T1, AChE (Electrophorus electricus, UniProt O42275)
T1 construct: The reaction was carried out using AChE serum obtained from the electric eel; from tissue; host or cells: 'serum' of the electric eel (so in the source)
Details: ref 39 (CAPE), 35 (Spiraeoside), 43 (olivetol), 36 (Vescalagin), 34 (Magnofluorine), 40 (taxifolin), 33 (coumestrol); read-out: Ki AChE (literature)

T1 sequence (O42275 24-633): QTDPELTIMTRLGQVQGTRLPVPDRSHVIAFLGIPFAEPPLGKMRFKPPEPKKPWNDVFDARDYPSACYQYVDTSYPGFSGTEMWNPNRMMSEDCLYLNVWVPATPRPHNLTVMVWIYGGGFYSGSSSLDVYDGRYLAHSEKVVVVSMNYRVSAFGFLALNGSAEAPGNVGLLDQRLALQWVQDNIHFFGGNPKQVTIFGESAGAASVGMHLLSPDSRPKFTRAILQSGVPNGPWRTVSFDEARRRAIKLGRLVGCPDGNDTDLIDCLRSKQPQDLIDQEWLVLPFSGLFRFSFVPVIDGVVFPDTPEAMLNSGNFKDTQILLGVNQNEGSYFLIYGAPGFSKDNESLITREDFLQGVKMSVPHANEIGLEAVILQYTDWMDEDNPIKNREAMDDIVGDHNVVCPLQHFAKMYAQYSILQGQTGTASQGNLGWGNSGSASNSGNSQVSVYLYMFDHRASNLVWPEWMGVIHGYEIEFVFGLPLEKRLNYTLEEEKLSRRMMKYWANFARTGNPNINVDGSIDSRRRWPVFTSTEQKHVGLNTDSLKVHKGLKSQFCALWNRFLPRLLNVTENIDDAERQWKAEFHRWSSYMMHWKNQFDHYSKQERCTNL

| SMILES | Ki [nM] |
| --- | --- |
| O=C(/C=C/c1ccc(O)c(O)c1)OCCc1ccccc1 [CAPE, caffeic acid phenethyl ester] | 0.518 |
| O=c1c(O)c(-c2ccc(O[C@@H]3O[C@H](CO)[C@@H](O)[C@H](O)[C@H]3O)c(O)c2)oc2cc(O)cc(O)c12 [Spiraeoside] | 3.4 |
